Assay: method code SF-AS, from PMID: 594121
Settings: not given

Row | logP | Compound
1 | 2.76 | O=C(CN1CCCCC1)Nc1ccccc1Cl
2 | 2.85 | COc1ccccc1NC(=O)CN1CCCCC1
3 | 2.59 | O=C(CN1CCCCC1)Nc1cccc([N+](=O)[O-])c1
4 | 2.75 | O=C(CN1CCCCC1)Nc1ccccc1[N+](=O)[O-]
5 | 3.06 | O=C(CN1CCCCC1)Nc1ccc(C(F)(F)F)cc1
6 | 2.71 | COc1cccc(NC(=O)CN2CCCCC2)c1
7 | 3.09 | O=C(CN1CCCCC1)Nc1ccccc1C(F)(F)F
8 | 2.85 | O=C(CN1CCCCC1)Nc1cccc(F)c1
9 | 3.17 | CCOc1cccc(NC(=O)CN2CCCCC2)c1
10 | 2.95 | Cc1ccc(NC(=O)CN2CCCCC2)cc1
11 | 2.7 | O=C(CN1CCCCC1)Nc1ccc(F)cc1
12 | 2.16 | O=C(CN1CCCCC1)Nc1ccccc1F
13 | 3.12 | O=C(CN1CCCCC1)Nc1cccc(C(F)(F)F)c1
14 | 3.45 | O=C(CN1CCCCC1)Nc1cccc(Cl)c1
15 | 2.97 | Cc1cccc(NC(=O)CN2CCCCC2)c1
16 | 2.26 | Cc1ccccc1NC(=O)CN1CCCCC1
17 | 2.94 | O=C(CN1CCCCC1)Nc1ccccc1Br
18 | 3.04 | CCOc1ccccc1NC(=O)CN1CCCCC1

Same assay, conditions: pH 7.4

Row | logD | Compound
19 | 3.23 | O=C(CN1CCCCC1)Nc1cccc(I)c1
20 | 3.21 | O=C(CN1CCCCC1)Nc1ccc(I)cc1
21 | 2.88 | O=C(CN1CCCCC1)Nc1ccc(Br)cc1
22 | 2.25 | O=C(CN1CCCCC1)Nc1ccc([N+](=O)[O-])cc1
23 | 2.82 | CCOc1ccc(NC(=O)CN2CCCCC2)cc1
24 | 2.93 | O=C(CN1CCCCC1)Nc1cccc(Br)c1
25 | 2.41 | O=C(CN1CCCCC1)Nc1ccccc1
